# Structures can show the parent of a compound that is named as a salt.
# System: ZIKV replicon in Vero cells
# Experiment: ZIKV Replication Inhibition Assay (replicon, NanoLuc)
# Settings: Zika virus, Vero, 72 h, read-out: Zika Replicon EC50
row,Compound,EC50
1,"O=C([N-]c1c[n+](Cc2ccc(-c3c(F)nc[nH]c3=O)cc2)no1)Nc1cccc(C(F)(F)F)c1 [Example 107, (3-(4-(4-fluoro-6-oxo-1,6-dihydropyrimidin-5-yl)benzyl)-1,2,3-oxadiazol-3-ium-5-yl)((3-(trifluoromethyl)phenyl)carbamoyl)amide]",1000 to 20000 nM
2,"Cc1ccncc1-c1ccc(C[n+]2cc([N-]C(=O)Nc3cccc(C(F)(F)F)c3)on2)cc1 [Example 85, (3-(4-(4-methylpyridin-3-yl)benzyl)-1,2,3-oxadiazol-3-ium-5-yl)((3-(trifluoromethyl)phenyl)carbamoyl)amide]",< 100 nM
3,"Cc1nc(OCCO)ncc1-c1ccc(C[n+]2cc([N-]C(=O)Nc3cccc(C(F)(F)F)c3)on2)cc1 [Example 89, (3-(4-(2-(2-hydroxyethoxy)-4-methylpyrimidin-5-yl)benzyl)-1,2,3-oxadiazol-3-ium-5-yl)((3-(trifluoromethyl)phenyl)carbamoyl)amide]",100 to 1000 nM
4,"O=C([N-]c1c[n+](Cc2ccc(-c3ccc(CN4CCOCC4)cc3)cc2)no1)Nc1cccc(C(F)(F)F)c1 [Example 56, (3-((4′-(morpholinomethyl)-[1,1′-biphenyl]-4-yl)methyl)-1,2,3-oxadiazol-3-ium-5-yl)((3-(trifluoromethyl)phenyl)carbamoyl)amide]",1000 to 20000 nM
5,"NC[C@H](Cc1ccc(-c2ccccc2)cc1)[n+]1cc([N-]C(=O)Nc2cccc(C(F)(F)F)c2)on1 [Example 65, (S)-(3-(1-([1,1′-biphenyl]-4-yl)-3-aminopropan-2-yl)-1,2,3-oxadiazol-3-ium-5-yl)((3-(trifluoromethyl)phenyl)carbamoyl)amide formate]",1000 to 20000 nM
6,"C[C@@H](c1ccc(-c2cncnc2)cc1)[n+]1cc([N-]C(=O)Nc2cncc(C(F)(F)F)c2)on1 [Example 77, (S)-(3-(1-(4-(pyrimidin-5-yl)phenyl)ethyl)-1,2,3-oxadiazol-3-ium-5-yl)((5-(trifluoromethyl)pyridin-3-yl)carbamoyl)amide]",100 to 1000 nM
7,"CC(=O)NC[C@@H](Cc1ccc(-c2ccccc2)cc1)[n+]1cc([N-]C(=O)Nc2cccc(C(F)(F)F)c2)on1 [Example 71, (R)-(3-(1-([1,1′-biphenyl]-4-yl)-3-acetamidopropan-2-yl)-1,2,3-oxadiazol-3-ium-5-yl)((3-(trifluoromethyl)phenyl)carbamoyl)amide]",> 20000 nM
8,"Cc1cc(NC(=O)[N-]c2c[n+](C(C)Cc3ccccc3)no2)cc(C(F)(F)F)c1 (centres unmarked) [Example 33, ((3-methyl-5-(trifluoromethyl)phenyl)carbamoyl)(3-(1-phenylpropan-2-yl)-1,2,3-oxadiazol-3-ium-5-yl)amide]",> 20000 nM
9,"O=C([N-]c1c[n+]([C@@H](CO)c2ccccc2)no1)Nc1cccc(C(F)(F)F)c1 [Example 30, (R)-(3-(2-hydroxy-1-phenylethyl)-1,2,3-oxadiazol-3-ium-5-yl)((3-(trifluoromethyl)phenyl)carbamoyl)amide]",1000 to 20000 nM
10,"CC(Cc1ccccc1)[n+]1cc([N-]C(=O)Nc2ncc(C(F)(F)F)s2)on1 (centres unmarked) [Example 4, (3-(1-phenylpropan-2-yl)-1,2,3-oxadiazol-3-ium-5-yl)((5-(trifluoromethyl)thiazol-2-yl)carbamoyl)amide]",1000 to 20000 nM
11,"NC[C@@H](Cc1ccccc1)[n+]1cc([N-]C(=O)Nc2cccc(C(F)(F)F)c2)on1 [Example 49, (R)-(3-(1-amino-3-phenylpropan-2-yl)-1,2,3-oxadiazol-3-ium-5-yl)((3-(trifluoromethyl)phenyl)carbamoyl)amide formate]",> 20000 nM
12,"O=C([N-]c1c[n+](Cc2ccc(-c3ccsc3)cc2)no1)Nc1cccc(C(F)(F)F)c1 [Example 20, (3-(4-(thiophen-3-yl)benzyl)-1,2,3-oxadiazol-3-ium-5-yl)((3(trifluoromethyl)phenyl)carbamoyl)amide]",100 to 1000 nM
13,"O=C([N-]c1c[n+](Cc2ccc(-c3cnn4c3CNCC4)cn2)no1)Nc1cccc(C(F)(F)F)c1 [Example 124, (3-((5-(4,5,6,7-tetrahydropyrazolo[1,5-a]pyrazin-3-yl)pyridin-2-yl)methyl)-1,2,3-oxadiazol-3-ium-5-yl)((3-(trifluoromethyl)phenyl)carbamoyl)amide]",100 to 1000 nM
14,"O=C([N-]c1c[n+](Cc2cccnc2)no1)Nc1cccc(C(F)(F)F)c1 [Example 29, (3-(pyridin-3-ylmethyl)-1,2,3-oxadiazol-3-ium-5-yl)((3-(trifluoromethyl)phenyl)carbamoyl)amide]",1000 to 20000 nM
15,"C=C(Cc1ccccc1)[n+]1cc([N-]C(=O)Nc2cccc(C(F)(F)F)c2)on1 [Example 36, (3-(3-phenylprop-1-en-2-yl)-1,2,3-oxadiazol-3-ium-5-yl)((3-(trifluoromethyl)phenyl)carbamoyl)amide]",> 20000 nM
16,"Cc1ncn(C)c1-c1ccc(C[n+]2cc([N-]C(=O)Nc3cccc(C(F)(F)F)c3)on2)cc1 [Example 98, (3-(4-(1,4-dimethyl-1H-imidazol-5-yl)benzyl)-1,2,3-oxadiazol-3-ium-5-yl)((3-(trifluoromethyl)phenyl)carbamoyl)amide]",100 to 1000 nM

row,Compound,EC50
1,"Cc1cc(C[n+]2cc([N-]C(=O)Nc3cccc(C(F)(F)F)c3)on2)ccc1-c1c(C)noc1C [Example 88, (3-(4-(3,5-Dimethylisoxazol-4-yl)-3-methylbenzyl)-1,2,3-oxadiazol-3-ium-5-yl)((3-(trifluoromethyl)phenyl)carbamoyl)amide]",< 100 nM
2,"NC[C@@H](Cc1ccc(-c2ccccc2)cc1)[n+]1cc([N-]C(=O)Nc2cccc(C(F)(F)F)c2)on1 [Example 66, (R)-(3-(1-([1,1′-biphenyl]-4-yl)-3-aminopropan-2-yl)-1,2,3-oxadiazol-3-ium-5-yl)((3-(trifluoromethyl)phenyl)carbamoyl)amide]",1000 to 20000 nM
3,"Cc1ncncc1-c1ccc([C@H](C)[n+]2cc([N-]C(=O)Nc3cccc(C(F)(F)F)c3)on2)cc1 [Example 79, (S)-(3-(1-(4-(4-methylpyrimidin-5-yl)phenyl)ethyl)-1,2,3-oxadiazol-3-ium-5-yl)((3-(trifluoromethyl)phenyl)carbamoyl)amide]",< 100 nM
4,"Cc1ncncc1-c1ccc([C@@H](C)[n+]2cc([N-]C(=O)Nc3cccc(C(F)(F)F)c3)on2)cc1 [Example 82, (R)-(3-(1-(4-(4-methylpyrimidin-5-yl)phenyl)ethyl)-1,2,3-oxadiazol-3-ium-5-yl)((3-(trifluoromethyl)phenyl)carbamoyl)amide]",100 to 1000 nM
5,"C[C@@H](c1ccc(Br)cc1)[n+]1cc([N-]C(=O)Nc2cncc(C(F)(F)F)c2)on1 [Example 76, (S)-(3-(1-(4-bromophenyl)ethyl)-1,2,3-oxadiazol-3-ium-5-yl)((5-(trifluoromethyl)pyridin-3-yl)carbamoyl)amide]",100 to 1000 nM
6,"CC(c1ccccc1)[n+]1cc([N-]C(=O)Nc2cccc(C(F)(F)F)c2)on1 (centres unmarked) [Example 38, (3-(1-phenylethyl)-1,2,3-oxadiazol-3-ium-5-yl)((3-(trifluoromethyl)phenyl)carbamoyl)amide]",1000 to 20000 nM
7,"O=C([N-]c1c[n+](Cc2ccc(-c3cncnc3C3CC3)cc2)no1)Nc1cccc(C(F)(F)F)c1 [Example 91, (3-(4-(4-cyclopropylpyrimidin-5-yl)benzyl)-1,2,3-oxadiazol-3-ium-5-yl)((3-(trifluoromethyl)phenyl)carbamoyl)amide]",100 to 1000 nM
8,"Cc1cc(C[n+]2cc([N-]C(=O)Nc3cccc(C(F)(F)F)c3)on2)ccc1-c1cncnc1C [Example 101, (3-(3-methyl-4-(4-methylpyrimidin-5-yl)benzyl)-1,2,3-oxadiazol-3-ium-5-yl)((3-(trifluoromethyl)phenyl)carbamoyl)amide]",< 100 nM
9,"O=C([N-]c1c[n+](CCc2ccccc2)no1)Nc1cccc(C(F)(F)F)c1 [Example 5, (3-phenethyl-1,2,3-oxadiazol-3-ium-5-yl)((3-(trifluoromethyl)phenyl)carbamoyl)amide]",100 to 1000 nM
10,"Cc1noc(C)c1-c1ccc(C[n+]2cc([N-]C(=O)Nc3cccc(C(F)(F)F)c3)on2)nc1 [Example 109, (3-((5-(3,5-dimethylisoxazol-4-yl)pyridin-2-yl)methyl)-1,2,3-oxadiazol-3-ium-5-yl)((3-(trifluoromethyl)phenyl)carbamoyl)amide]",< 100 nM
11,"O=C([N-]c1c[n+]([C@H](CO)Cc2ccccc2)no1)Nc1cccc(C(F)(F)F)c1 [Example 32, (S)-(3-(1-hydroxy-3-phenylpropan-2-yl)-1,2,3-oxadiazol-3-ium-5-yl)((3-(trifluoromethyl)phenyl)carbamoyl)amide]",1000 to 20000 nM
12,"O=C([N-]c1c[n+](Cc2ccc(-c3cnn(C4CCNCC4)c3)nc2)no1)Nc1cccc(C(F)(F)F)c1 [Example 117, (3-((6-(1-(piperidin-4-yl)-1H-pyrazol-4-yl)pyridin-3-yl)methyl)-1,2,3-oxadiazol-3-ium-5-yl)((3-(trifluoromethyl)phenyl)carbamoyl)amide]",1000 to 20000 nM
13,"O=C([N-]c1on[n+](Cc2ccccc2)c1Cl)Nc1cccc(C(F)(F)F)c1 [Example 24, (3-Benzyl-4-chloro-1,2,3-oxadiazol-3-ium-5-yl)((3-(trifluoromethyl)phenyl)carbamoyl)amide]",> 20000 nM
14,"O=C([N-]c1c[n+](Cc2ccc(-c3cncnc3)nc2)no1)Nc1cccc(C(F)(F)F)c1 [Example 103, (3-((6-(pyrimidin-5-yl)pyridin-3-yl)methyl)-1,2,3-oxadiazol-3-ium-5-yl)((3-(trifluoromethyl)phenyl)carbamoyl)amide]",100 to 1000 nM
15,"CC(Cc1ccc(Cl)c(Cl)c1)[n+]1cc([N-]C(=O)Nc2cccc(C(F)(F)F)c2)on1 (centres unmarked) [Example 9, (3-(1-(3,4-dichlorophenyl)propan-2-yl)-1,2,3-oxadiazol-3-ium-5-yl)((3-(trifluoromethyl)phenyl)carbamoyl)amide]",1000 to 20000 nM
16,"O=C([N-]c1c[n+](Cc2ccc(-c3cnn(C4CCNCC4)c3)cn2)no1)Nc1cccc(C(F)(F)F)c1 [Example 120, (3-((5-(1-(piperidin-4-yl)-1H-pyrazol-4-yl)pyridin-2-yl)methyl)-1,2,3-oxadiazol-3-ium-5-yl)((3-(trifluoromethyl)phenyl)carbamoyl)amide]",1000 to 20000 nM
